Here are results for 3 compounds from US9993488B2, “Dry powder formulations for inhalation” (OtiTopic Inc., priority 2014, dated 2018).

What is called solubility is how much of the substance goes into solution per volume.

The structures appear in SMILES notation. In brackets after ≈: the same amount, converted by molar mass. Read-outs that look alike come from different tables or passages of the source.

The conditions of data set [1]: cited from earlier work.
Data set [2] deals with platelet aggregation, platelet thromboxane production, urinary 2,3-dinor-TXB2 excretion. The conditions noted are these: cited from earlier work.
Data set [3] in a line: Solubility of aspirin in anti-solvents / dispersion media. Format: physicochemical. Here is the method:
After considering a number of factors in the end it was determined that only n-heptane and toluene fulfilled all the requirements, and therefore these were selected for further evaluation. Suspensions of aspirin at 5% w/w were prepared with the various anti-solvents, by charging the required amount of anti-solvent, charging the required amount of aspirin, and then stirring until a homogeneous suspension was obtained. The suspensions were qualitatively evaluated at room temperature and then filtered using a 0.45 μm membrane, which was then placed in an oven and dried at 60° C. until the solvent had completely evaporated. A quantitative analysis was performed on the residue that remained in the membrane by weighing the membrane before and after the test.
5% w/w DSPC was used as it was found from previous work to mitigate irritation when inhaled. Additionally, soy lecithin was also used in the concentration of 0.1% w/w. As aspirin is insoluble in n-hexane, it was selected as a dispersion media for the micronized particles. Also, it has boiling point of 70° C. which is much below the melting point of aspirin (˜135° C.) and therefore, an inlet temperature of 85° C. should remove solvent without affecting the aspirin particles.

For data set [4], the system named is respiratory system. The data set is described as follows: Irritation / tolerability on inhalation. Format: in vivo. From the text: In addition, particles described herein can be mixed and/or coated with various pharmaceutically acceptable excipients. Excipients can be included in order to improve aerodynamic performance of the active drug, to improve bioavailability, increase stability, to modulate pH, to provide sustained release properties, to provide taste-masking of an irritating drug and/or to improve pharmacokinetic performance. In one embodiment, a dry powder comprises an amount of excipient effective to provide taste-masking of an irritating drug. In terms of suitable formulations for inhalation, not only is particle size important in order to reach a desired region of the respiratory system, but the formulation must be acceptable to patients. […] Consequently, it became necessary to find a suitable excipient in order to mask this property of aspirin.
Aspirin alone may be too irritating and evoke a choking response (e.g., coughing, bronchospasms) when inhaled. […] For example, symptoms of headache and nasal congestion may be alleviated within about 10 seconds, about 15 seconds, about 20 seconds, about 30 seconds, or within about 45 seconds.

The test system of data set [5] is vascular events. As to conditions: cited from earlier work.
Data set [6] is described as follows: Solubility of aspirin in solvents. The data set is classed as physicochemical. As to conditions: organic solvent or mixture. An excerpt:
The solubility of aspirin in a number of solvents was first evaluated prior to initiating controlled crystallization by addition of a suitable anti-solvent.

Data set [7] concerns major gastrointestinal and extracranial bleeds. As to conditions: oral aspirin; cited from earlier work.
The nature of data set [8]: Gravimetric emitted dose through DPI devices (TwinCaps, RS01) with NGI. The data set is classed as physicochemical. The conditions noted are these: 40 L/min, fill weight 60.00 mg. How it is done:
The aerodynamic particle size distributions (APSDs) of the ASA powders were determined by evaluating emitted doses gravimetrically through two DPI devices, the TwinCaps and the RS01, using a Next Generation Impactor (NGI). Flow rates of approximately 40 and 100 L/min provided the 4 kPa pressure drop across the TwinCaps and RS01 devices, respectively, as stipulated by USP <601>, Inhalation and Nasal Drug Products: Aerosol, Sprays, and Powders—Performance Quality Tests.
The TwinCaps DPI was tested (2 actuations) using various loaded doses. Testing was performed to determine the approximate emitted dose from the device based on weight. Each test was performed using a freshly prepared NGI.
The Plastiape RS01 monodose DPI inhaler was also tested using various loaded doses in Size 3 HPMC capsules to determine approximate emitted dose based on the weight.

Data set [9] can be described thus: Pharmacokinetics of orally administered aspirin (literature). As to conditions: extrapolated from linear pharmacokinetics over 30-400 mg.
Where [10] appears, read: after oral administration of ASA.
The mark [11] stands for this setting: 5% w/w suspension, room temperature, 0.45 μm filtration.
The mark [12] stands for this setting: following administration of ASA.

Regarding `CC(=O)Oc1ccccc1C(=O)O` [aspirin, acetylsalicylic acid], in data set [1] (setting [10]), the elimination half-life is 0.25 to 0.333 h. The “time to peak plasma levels” value in [1] (setting [10]) is “about 20 minutes”. Also, in data set [1] (oral, first pass effect), the “fraction of oral dose bioavailable” value is “one to two-thirds”. For the same compound, the “fraction of oral dosage lost or inactivated by first pass effect” value in data set [1] (oral, gut and liver) was “approximately ⅔”. For the same compound, the “inhibition of indices of platelet activation” value in data set [2] (40 mg ASA versus 100 mg, healthy human subjects) is “significantly less effective”. Moreover, in data set [2] (plain versus enteric-coated 100 mg ASA), the “inhibition of platelet aggregation, thromboxane production, urinary 2,3-dinor-TXB2 excretion” value is reported as “equally effective”. Moreover, the Behavior towards n-heptane entry in data set [3] (setting [11]) is reported as “phobic behavior”. Also, in data set [3] (setting [11]), the Solubility in toluene entry is reported as “partially soluble”. Besides, in data set [3] (n-hexane), the Solubility in n-hexane result is “insoluble”. The “irritation / tolerability when inhaled” value in data set [4] is recorded as “quite irritating”. In addition, the vascular events prevented in data set [5] (Dutch TIA Study, any dose above 30 mg daily) is listed as 13%. In addition, the “risk of stroke or death” value in [5] (SALT, 75 mg/day, patients with cerebrovascular ischemic events) is listed as “significantly reduces”. Further, the solubility worked out at 500 mg/mL (≈ 2780 mM) in [6] (DMF, 23 °C); 77 mg/mL (≈ 427 mM) in data set [6] (PEG-200, 23 °C); 250 mg/mL (≈ 1390 mM) in [6] (THF, 3 °C); 500 mg/mL (≈ 2780 mM) in data set [6] (THF, 23 °C); 143 mg/mL (≈ 794 mM) in data set [6] (acetone, 3 °C); 200 mg/mL (≈ 1110 mM) in [6] (acetone, 23 °C). Further, the solubility was determined as 63 mg/mL (≈ 350 mM) in data set [6] (ethanol, EtOH, 3 °C); 125 mg/mL (≈ 694 mM) in [6] (ethanol, EtOH, 23 °C); 133 mg/mL (≈ 738 mM) in data set [6] (methanol, MeOH, 3 °C); 167 mg/mL (≈ 927 mM) in data set [6] (methanol, MeOH, 23 °C). In [7], the “increase of major gastrointestinal and extracranial bleeds” value was “over 50%”.
In the case of `OC[C@H]1O[C@@H](O[C@H]2[C@H](O)[C@@H](O)C(O)O[C@@H]2CO)[C@H](O)[C@@H](O)[C@H]1O` (stereo partly shown) [Lactose, lactose], in [8], the “% Emitted (based on fill weight)” value is 94.5% and the “Total Emitted Dose” value was determined as 56.73 mg.
Take `O=C(O)c1ccccc1O` [salicylic acid]: in data set [1] (setting [12]), the elimination half-life is 2 to 3 h and the “period of increasing plasma levels” value is “about 45 minutes”. In addition, the “expected peak circulating plasma level” value in data set [9] is around 10 µg/mL.
